Assay results: ChEMBL document CHEMBL6121036, “Evaluation of Cereblon-Directing Warheads for the Development of Orally Bioavailable PROTACs” (J Med Chem, 2025)
Values after ≈ are worked out from the molar mass of the structure shown. Active and inactive are the calls of the source. The rule behind the calls is not given here.

Tests used:
[1] = target: T1, Protein cereblon/Bromodomain-containing protein 4 (Homo sapiens, UniProt O60885+Q96SW2); assay: PROTAC activity at CRBN/Hibit-tagged BRD4 (unknown origin) expressed in HEK293 cells co-expressing LgBiT assessed as degradation of BRD4 incubated for 24 hrs by […] glo-max assay; type: cell-based
[2] = target: T1, Protein cereblon/Bromodomain-containing protein 4; assay: PROTAC activity at CRBN/Hibit-tagged BRD4 (unknown origin) expressed in HEK293 cells co-expressing LgBiT assessed as degradation of BRD4 incubated for 24 hrs by […] glo-max assay relative to control; type: cell-based
[3] = target: T1, Protein cereblon/Bromodomain-containing protein 4; assay: PROTAC activity at CRBN/Hibit-tagged BRD4 (unknown origin) expressed in HEK293 cells co-expressing LgBiT assessed as degradation rate incubated for 24 hrs by […] glo-max assay; type: cell-based
MV4-11 [4] = assay: Cytotoxicity against human MV4-11 cells assessed as reduction in cell viability incubated for 72 hrs by cell-titer glo assay; type: functional, cell-based; settings: MV4-11, 72 h
HD-MB03 = assay: Cytotoxicity against human HD-MB03 cells assessed as reduction in cell viability incubated for 72 hrs by cell-titer glo assay; type: functional, cell-based; settings: HD-MB03, 72 h
[5] = Kinetic aqueous solubility of the compound at pH 7.4; type: physicochemical; settings: read-out: Kinetic_solubility
[6] = Metabolic stability in mouse liver microsomes assessed as half life; type: ADME, Microsome; settings: liver microsomes
[7] = target: T2, Protein cereblon/Bromodomain-containing protein 4/DNA damage-binding protein 1 (Homo sapiens) (UniProt O60885+Q96SW2+Q16531); assay: Binding affinity to his-tagged CRBN/DDB1/GST-tagged BRD4 (49 to 170 residues)(unknown origin) assessed as ternary complex formation (AUC) incubated for 1 hr by luminescence based Alphascreen assay; type: protein assay
HEK293 = assay: Cytotoxicity against HEK293 cells expressing LgBiT fused HiBiT-BRD2 measured after 24 hrs by cell titer-glo assay; type: toxicity, cell-based; settings: human, hek293, 24 h
[8] = target: T2, Protein cereblon/Bromodomain-containing protein 4/DNA damage-binding protein 1 (Homo sapiens); assay: Binding affinity to his-tagged CRBN/DDB1/GST-tagged BRD4 (49 to 170 residues)(unknown origin) assessed as ternary complex formation by measuring AUC incubated for 1 hr by luminescence based Alphascreen assay; type: protein assay
[9] = Clearance in female CD1 mouse at 3 mg/kg, iv measured upto 24 hrs by LC-MS/MS analysis; type: ADME, organism-based; settings: in vivo
[10] = Terminal elimination half life in female CD1 mouse at 3 mg/kg, iv measured upto 24 hrs by LC-MS/MS analysis; type: ADME, organism-based; settings: in vivo, read-out: beta t1/2 (converted)
[11] = AUC in female CD1 mouse at 3 mg/kg, iv measured upto 24 hrs by LC-MS/MS analysis; type: ADME, organism-based; settings: in vivo
[12] = Volume of distribution in female CD1 mouse at 3 mg/kg, iv measured upto 24 hrs by LC-MS/MS analysis; type: ADME, organism-based; settings: in vivo
[13] = Cmax in female CD1 mouse at 10 mg/kg, po measured upto 24 hrs by LC-MS/MS analysis; type: ADME, organism-based; settings: in vivo
[14] = Oral bioavailability in female CD1 mouse at 10 mg/kg measured upto 24 hrs by LC-MS/MS analysis; type: ADME, organism-based; settings: in vivo
[15] = target: T1, Protein cereblon/Bromodomain-containing protein 4; assay: PROTAC activity at CRBN/BRD4 in human MV4-11 cells assessed as degradation of BRD4 incubated for 4 hrs by immunoblot analysis; type: cell-based
[16] = target: Protein cereblon/Bromodomain-containing protein 2 (Homo sapiens) (UniProt P25440+Q96SW2); assay: PROTAC activity at CRBN/BRD2 in human MV4-11 cells assessed as degradation of BRD2 incubated for 4 hrs by immunoblot analysis relative to control; type: cell-based
[17] = target: Protein cereblon/Bromodomain-containing protein 3 (Homo sapiens) (UniProt Q15059+Q96SW2); assay: PROTAC activity at CRBN/BRD3 in human MV4-11 cells assessed as degradation of BRD3 incubated for 4 hrs by immunoblot analysis relative to control; type: cell-based
MV4-11 [18] = assay: Downregulation of c-Myc level in human MV4-11 cells measured after 4 hrs by immunoblot analysis; type: functional, cell-based
MV4-11 [19] = assay: Upregulation of p53 level in human MV4-11 cells measured after 4 hrs by immunoblot analysis; type: functional, cell-based
[20] = target: Protein cereblon (Homo sapiens) (UniProt Q96SW2); assay: Binding affinity to CRBN (unknown origin)
[21] = Chemical stability in human MV4-11 cell culture media at 400 uM measured upto 72 hrs by UPLC analysis; type: physicochemical
[22] = Chemical stability in human HD-MB03 cell culture media at 400 uM measured upto 72 hrs by UPLC analysis; type: physicochemical
[23] = Effect on BRD3 level in human MV4-11 cells assessed as fold change at 100 nM measured after 4 hrs; type: functional
[24] = Effect on BRD4 level in human MV4-11 cells assessed as fold change at 100 nM measured after 4 hrs; type: functional
[25] = Effect on BRD2 level in human MV4-11 cells assessed as fold change at 100 nM measured after 4 hrs; type: functional
[26] = Effect on MYC level in human MV4-11 cells assessed as fold change at 100 nM measured after 4 hrs; type: functional
[27] = Effect on FYTTD1 level in human MV4-11 cells assessed as fold change at 100 nM measured after 4 hrs; type: functional
[28] = Effect on CCNF level in human MV4-11 cells assessed as fold change at 100 nM measured after 4 hrs; type: functional
[29] = Effect on CDC42EP3 level in human MV4-11 cells assessed as fold change at 100 nM measured after 4 hrs; type: functional
[30] = Effect on MCL1 level in human MV4-11 cells assessed as fold change at 100 nM measured after 4 hrs; type: functional
[31] = Effect on PLAU level in human MV4-11 cells assessed as fold change at 100 nM measured after 4 hrs; type: functional
[32] = Effect on ZFP36L2 level in human MV4-11 cells assessed as fold change at 100 nM measured after 4 hrs; type: functional
[33] = Effect on FGL2 level in human MV4-11 cells assessed as fold change at 100 nM measured after 4 hrs; type: functional
[34] = Effect on NSA2 level in human MV4-11 cells assessed as fold change at 100 nM measured after 4 hrs; type: functional
[35] = Effect on CCND3 level in human MV4-11 cells assessed as fold change at 100 nM measured after 4 hrs; type: functional
[36] = Effect on AURKA level in human MV4-11 cells assessed as fold change at 100 nM measured after 4 hrs; type: functional
[37] = Effect on NOP53 level in human MV4-11 cells assessed as fold change at 100 nM measured after 4 hrs; type: functional
[38] = Effect on PLK1 level in human MV4-11 cells assessed as fold change at 100 nM measured after 4 hrs; type: functional
[39] = Effect on RNF166 level in human MV4-11 cells assessed as fold change at 100 nM measured after 4 hrs; type: functional
[40] = Effect on ZBTB21 level in human MV4-11 cells assessed as fold change at 100 nM measured after 4 hrs; type: functional
[41] = Effect on TP53 level in human MV4-11 cells assessed as fold change at 100 nM measured after 4 hrs; type: functional
[42] = Permeability in MDCK-II cells incubated for 1 hr by UPLC/MS/UV analysis; type: ADME, cell-based, Canis lupus familiaris; settings: dog, read-out: permeability
[43] = Stability in mouse plasma assessed as half life by UPLC-MS/MS analysis; type: ADME, cell-free
[44] = AUC last in female CD1 mouse at 10 mg/kg, po measured upto 24 hrs by LC-MS/MS analysis; type: ADME, organism-based; settings: in vivo
[45] = Permeability in human MV4-11 cells assessed as cell availability index relative to lenalidomide; type: ADME, cell-based
[46] = Chemical stability in human MV4-11 cell culture media assessed as half life; type: physicochemical
[47] = Chemical stability in human HD-MB03 cell culture media assessed as half life; type: physicochemical

**Q.** For Cc1sc2c(c1C)C(c1ccc(Cl)cc1)=N[C@@H](CC(=O)N1CCC(CN3CCN(c4ccc(C5CCC(=O)NC5=O)cc4)CC3)CC1)c1nnc(C)n1-2 (some centres undefined), which DC50 [1] is on record?
**A.** Its DC50 is 0.19 nM.

**Q.** And the Emax [2]?
**A.** The Emax was 96.9%.

**Q.** And the Activity [3]?
**A.** The Activity was 0.292 fRLU/hr.

**Q.** What about the IC50 (MV4-11 [4]) of the same molecule?
**A.** Its IC50 is 0.12 nM.

**Q.** And the IC50 (HD-MB03)?
**A.** The IC50 was 0.92 nM.

**Q.** What about the solubility kinetic [5] of the same molecule?
**A.** Its solubility kinetic is 48.4 µM (≈ 36.5 µg/mL).

**Q.** And the half-life [6]?
**A.** The half-life was 78 min.

**Q.** And the Activity [7]?
**A.** The Activity was “Active”.

**Q.** What about the Activity (HEK293) of the same molecule?
**A.** The Activity was “Non-toxic”.

**Q.** What about the AUC [8] of the same molecule?
**A.** Its AUC is 281000.

**Q.** What about the clearance [9] of the same molecule?
**A.** The clearance was 8.85 mL/min/kg.

**Q.** What about the half-life [10] of the same molecule?
**A.** The half-life was 204 min.

**Q.** What about the AUC at 24 h [11] of the same molecule?
**A.** Its AUC at 24 h is 5540 ng·h/mL.

**Q.** And the Vd [12]?
**A.** Its Vd is 0.85 L/kg.

**Q.** What about the Cmax [13] of the same molecule?
**A.** The Cmax was 2440 ng/mL.

**Q.** And the bioavailability [14]?
**A.** The bioavailability was 45%.

**Q.** What about the DC50 [15] of the same molecule?
**A.** The DC50 was 0.127 nM.

**Q.** What about the Activity [16] of the same molecule?
**A.** Its Activity is over 90%.

**Q.** What about the Activity [17] of the same molecule?
**A.** Its Activity is over 90%.

**Q.** And the Activity (MV4-11 [18])?
**A.** The Activity was “Active”.

**Q.** And the Activity (MV4-11 [19])?
**A.** The Activity was “Active”.

**Q.** What about the Activity [20] of the same molecule?
**A.** The Activity was “Active”.

**Q.** And the Stability [21]?
**A.** The Stability was “Stable”.

**Q.** What about the Stability [22] of the same molecule?
**A.** Its Stability is “Stable”.

**Q.** What about the “fold change (FC)” value [23] of the same molecule?
**A.** Its value is -3.85.

**Q.** What about the “fold change (FC)” value [24] of the same molecule?
**A.** Its value is -3.85.

**Q.** And the “fold change (FC)” value [25]?
**A.** The value was -3.52.

**Q.** And the “fold change (FC)” value [26]?
**A.** The value was -2.05.

**Q.** And the “fold change (FC)” value [27]?
**A.** Its value is -1.67.

**Q.** What about the “fold change (FC)” value [28] of the same molecule?
**A.** Its value is -1.13.

**Q.** What about the “fold change (FC)” value [29] of the same molecule?
**A.** Its value is -1.38.

**Q.** What about the “fold change (FC)” value [30] of the same molecule?
**A.** The value was -1.21.

**Q.** What about the “fold change (FC)” value [31] of the same molecule?
**A.** The value was -1.2.

**Q.** And the “fold change (FC)” value [32]?
**A.** Its value is -1.18.

**Q.** And the “fold change (FC)” value [33]?
**A.** Its value is -1.16.

**Q.** What about the “fold change (FC)” value [34] of the same molecule?
**A.** The value was -1.05.

**Q.** And the “fold change (FC)” value [35]?
**A.** The value was -0.99.

**Q.** What about the “fold change (FC)” value [36] of the same molecule?
**A.** The value was -0.97.

**Q.** And the “fold change (FC)” value [37]?
**A.** The value was -0.91.

**Q.** What about the “fold change (FC)” value [38] of the same molecule?
**A.** The value was -0.81.

**Q.** What about the “fold change (FC)” value [39] of the same molecule?
**A.** Its value is -0.12.

**Q.** What about the “fold change (FC)” value [40] of the same molecule?
**A.** Its value is -0.15.

**Q.** And the “fold change (FC)” value [41]?
**A.** Its value is 1.92.

**Q.** And the Papp at 1 h [42]?
**A.** The Papp at 1 h was 1.7 ×10⁻⁶ cm/s.

**Q.** What about the half-life [43] of the same molecule?
**A.** Its half-life is 438 min.

**Q.** What about the AUC(0-t) at 24 h [44] of the same molecule?
**A.** The AUC(0-t) at 24 h was 8060 ng·h/mL.

**Q.** Which Ratio [45] does the source give for Cc1sc2c(c1C)C(c1ccc(Cl)cc1)=N[C@@H](CC(=O)NCCCCNC(=O)COc1cccc3c1C(=O)N(C1CCC(=O)NC1=O)C3=O)c1nnc(C)n1-2 (some centres undefined) here?
**A.** The Ratio was 140.

**Q.** What about the half-life [46] of the same molecule?
**A.** The half-life was 252 min.

**Q.** And the half-life [47]?
**A.** Its half-life is 252 min.
